The record followed here is EP1707197A1 (TEVA PHARMACEUTICAL INDUSTRIES LTD., priority 2005, dated 2006).

Each structure is given as a SMILES string.

A short description of the series: small volume in vitro release test in 50 ml 0.1N HCl. In kind it is physicochemical. To be noted: 37° C, 150 rpm. The protocol:
The formulations were tested for their small volume in vitro release characteristics in 50 ml 0.1N HCl at 37° C and 150 rpm using the following procedure:
• a. Automated Dissolution System comprising: • Hanson SR8 Plus Test Station • Hanson Auto Plus Maximiser System Controller • Hanson Auto Plus MultiFill Fraction Collector • b. HPLC System comprising: • pump - Merck Hitachi L-7100 • autoinjector - Merck Hitachi L-7200 • column oven - Merck Hitachi L-7300 • detector - Merck Hitachi L-7400 • interface and integration software - Merck Hitachi D-7000
Place one weighed capsule in each vessel containing 0.1N HCl and immediately operate the apparatus for 30 min. Unless otherwise specified, 3 ml samples are withdrawn from each vessel and immediately filtered through PTFE membranes at 15 and 30 min.
The small volume was chosen as a model of the conditions in a fasted stomach.

`CC(C)OC(=O)C(C)(C)Oc1ccc(C(=O)c2ccc(Cl)cc2)cc1` [Micronized Fenofibrate, 2-[4-(4-chlorobenzoyl)phenoxy]-2-methyl-propanoic acid, 1-methylethyl ester]: the “% dissolved 15 min” value (15 min) came to 0%. Besides, the “% dissolved 30 min” value (30 min) is reported as 0%.
